From patent US20080039328A1, “Post Harvest Control of Genetically Modified Crop Growth Employing D-Amino Acid Compounds” (BASF PLANT SCIENCE GMBH, priority 2004, published 2008) come the findings set out here.

Entries after “also recorded” stand apart in the source; their conditions may differ.

The test system of experiment [1] is non-transgenic Zea mays plants. The experiment can be described thus: Greenhouse spraying of mixed plantlets on soil with D-isoleucine. Type of experiment: in vivo. The conditions noted are these: sprayed, 10 mM, 20 mM, 30 mM in isotonic salt solution, pH 7.0, soil, green-house. On the procedure:
(§1) Transgenic Arabidopsis, Brassica napus, and Zea mays plants are generated as described above using either construct I (SEQ ID NO: 15) or construct II (SEQ ID NO: 16) for Agrobacterium mediated transformation. Transgenic plants are selected using the negative selection marker property of the D-amino acid oxidase on medium comprising 0.3, 3 or 30 mM D-alanine (or D-serine). Resulting transgenic plants are selfed to obtain homozygous plants. Homozygous plants are propagated over 2 to 3 generations to ensure stability of the transgenic insertion.
(§2) Seeds of transgenic plants are mixed with seeds of the corresponding non-transgenic line (used for transformation). Various proportions of transgenic versus non-transgenic seeds are used (1:1, 1:10, 1:100).
(§3) Seeds are sown on standard soil under green-house conditions. After germination, developing plantlets were sprayed at various developmental steps with preparations of D-isoleucine (final concentration of 10 mM, 20 mM, 30 mM, respectively in isotonic salt solution, pH 7.0).

In experiment [2] the test system is Transgenic Zea mays plants (DAAO from Rhodotorula gracilis). The experiment is described as above. Type of experiment: in vivo. The conditions noted are these: sprayed, 10 mM, 20 mM, 30 mM in isotonic salt solution, pH 7.0, soil, green-house. On the procedure:
as §1, §2, §3

In experiment [3] the test system is non-transgenic Brassica napus plants. The experiment is described as above. The conditions noted are these: sprayed, 10 mM, 20 mM, 30 mM in isotonic salt solution, pH 7.0, soil, green-house. The class given is in vivo. On the procedure:
as §1, §2, §3

Experiment [4] relates to Transgenic Arabidopsis plants (DAAO from Rhodotorula gracilis). The description is as above. Type of experiment: in vivo. The conditions noted are these: sprayed, 10 mM, 20 mM, 30 mM in isotonic salt solution, pH 7.0, soil, green-house. As to the method:
as §1, §2, §3

In experiment [5] the test system is Transgenic Brassica napus plants (DAAO from Rhodotorula gracilis). The experiment is described as above. Type of experiment: in vivo. The conditions noted are these: sprayed, 10 mM, 20 mM, 30 mM in isotonic salt solution, pH 7.0, soil, green-house. On the procedure:
as §1, §2, §3

The test system of experiment [6] is non-transgenic Arabidopsis plants. Described as above. Type of experiment: in vivo. The conditions noted are these: sprayed, 10 mM, 20 mM, 30 mM in isotonic salt solution, pH 7.0, soil, green-house. On the procedure:
as §1, §2, §3

The subject of experiment [7] is dao1 transgenic A. thaliana. The experiment can be described thus: Growth of dao1 (DAAO) transgenic A. thaliana on medium with D-amino acids. Type of experiment: in vivo, Arabidopsis thaliana. On the procedure: (§4) FIG. 4 D-amino acid dose responses of dao1 transgenic and wild-type A. thaliana. (a-d) Growth of dao1 transgenic line 3:7 (white), 10:7 (light gray), 13:4 (gray) and wild-type (black) plants, in fresh weight per plant, on media containing various concentrations of D-serine, D-alanine, D-isoleucine and D-valine in half-strength MS with 0.5% (wt/vol) sucrose and 0.8% (wt/vol) agar. Different concentration ranges were used for different ID-amino acids. The plants were grown for 10 d after germination under 16 h photoperiods at 24° C.; n=10±s.e.m., except for plants grown on D-isoleucine, where smaller Petri dishes were used, (n=6±s.e.m.).
(§5) T1 seeds of transgenic Arabidopsis plants were surface-sterilized and sown in Petri plates that were sealed with gas-permeable tape. The growth medium was half strength MS19 with 0.5% (wt/vol) sucrose and 0.8% (wt/vol) agar, plus 3 mM D-alanine, 3 mM D-serine or 50 μg/ml kanamycin as the selective agent. Plants were grown for 5 d after germination with a 16 h photoperiod at 24° C. To evaluate the selection efficiency on different substrates, 2,074, 1,914 and 1,810 T1 seeds were sown on D-alanine-, D-serine- and kanamycin-selective plates, respectively, and the number of surviving seedlings was counted (44, 32 and 43, respectively).
The T-DNA contained both 35S:dao1 and pNos:nptII, allowing D-amino acid and kanamycin selection to be compared in the same lot of seeds.
Therefore, plants containing the construct were tested as described above on two sets of media, one containing D-isoleucine and the other containing D-valine at various concentrations, to assess whether DAAO could also be used as a counter-selection marker. Unambiguous counter-selection selection was achieved when seeds were sown on either D-isoleucine or D-valine at concentrations greater than 10 mM (FIG. 4 c,d).

In experiment [8] the test system is wild-type Arabidopsis thaliana. Kind of experiment: Growth of wild-type A. thaliana plantlets on medium with D-amino acids. The class given is in vivo. As to the method:
Wild type Arabidopsis thaliana plantlets were grown on half-concentrated Murashige-Skoog medium (0.5% (wt/vol) sucrose, 0.8% (wt/vol) agar) supplemented with the indicated D-amino acid at either 3 mM (Panel A) or 30 mM (Panel B).
as §4, §5

For a further experiment, the target named is T1, DAAO (Rhodotorula toruloides, UniProt P80324).
T1 construct: expressed in transfected cells; host or cells: Arabidopsis thaliana (Col-0), dao1 transgenic line 10:7, transformed with pPCV702:dao1 (CaMV 35S); crude soluble protein extract
T1 sequence (P80324 25-368): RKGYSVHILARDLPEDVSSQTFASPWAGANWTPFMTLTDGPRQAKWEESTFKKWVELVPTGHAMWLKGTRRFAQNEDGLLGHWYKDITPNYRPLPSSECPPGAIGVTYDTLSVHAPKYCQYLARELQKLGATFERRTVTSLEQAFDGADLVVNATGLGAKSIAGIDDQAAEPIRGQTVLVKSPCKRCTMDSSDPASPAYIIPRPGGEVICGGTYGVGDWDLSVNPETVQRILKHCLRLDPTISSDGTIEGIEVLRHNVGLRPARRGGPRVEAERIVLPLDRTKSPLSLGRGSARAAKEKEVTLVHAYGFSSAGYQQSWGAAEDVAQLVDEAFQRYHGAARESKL
Kind of experiment: DAAO incubation of cell-free plant extracts, keto acid production by HPLC. Type of experiment: biochemical, Rhodotorula gracilis. The conditions noted are these: cell-free extracts from dao1 transgenic line 10:7. On the procedure:
Soluble proteins were extracted by shaking 0.1 g samples of plant material that had been finely pulverized in a 1.5 ml Eppendorf tube in 1 ml of 0.1 M potassium phosphate buffer, pH 8. DAAO activity was then assayed as follows. Reaction mixtures were prepared containing 2,120 μl of 0.1 M potassium phosphate buffer, pH 8, 80 μl of crude protein extract and 100 μl of 0.3 M D-alanine. The samples were incubated for 2 h at 30° C. The enzyme activity was then assessed, by measuring the increase in absorbance at 220 nm (E=1.090 M^−1 cm^−1) associated with the conversion of D-alanine to pyruvate, after transferring the test tubes to boiling water for […] to stop the reaction. In control reactions, D-alanine was added immediately before boiling. One unit of DAAO activity is defined as the turnover of one micromole of substrate per minute, and activity was expressed per gram plant biomass (fresh weight). The breakdown of D-isoleucine and D-valine in DAAO incubations, and the associated production of 3-methyl-2-oxopentanoate and 3-methyl-2-oxobutanoate, were analyzed by high-performance liquid chromatography. In other respects the reactions were carried out as described above.
Presumably endogenous transaminase may be specific for the L-enantiomer, so the corresponding D-enantiomer is not metabolized in wildtype plants, but only in plants expressing DAAO. […]

[9] abbreviates: various concentrations in half-strength MS, 10 d after germination.

For the compound `CC[C@@H](C)[C@@H](N)C(=O)O` [D-isoleucine], the “Effect of the treatment on non-transgenic plants” value in [1], in experiment [3] and in experiment [6] was “unaffected” in each case. In addition, the “Transgenic plants able to reach maturity” value in experiment [2], in experiment [4] and in experiment [5] was “None” each time. Moreover, the “Response of thirteen individual lines expressing DAAO” value in [7] (in vivo) is given as “effectively killed”. For the same compound, in experiment [7] (treated with 30 mM), the “Effect on transgenic plantlets comprising DAAO gene (FIG. 2)” value is reported as “toxic effect”. For the same compound, the “Growth of plants expressing DAAO (FIG. 4)” value in experiment [7] (setting [9]) is given as “strong negative influence on the growth; also recorded: inhibit growth”. The “Effect on plant growth (FIG. 3)” value in [8] (3 mM or 30 mM in half-concentrated Murashige-Skoog medium, wild type plantlets) is on record as “no significant effects”. Moreover, the “Response of wild-type plants (compared with DAAO lines)” value in [8] (in vivo) is given as “grew well, with no sign of toxicity”. In addition, the “Effect on wild-type plantlets (FIG. 2)” value in experiment [8] (treated with 30 mM) is reported as “no severe damage”. The “Growth of wild-type plants (FIG. 4)” value in experiment [8] (setting [9]) is given as “not toxic; also recorded: minor effects; also recorded: not the wild-type plants”. Further, the “Increase in production of 3-methyl-2-oxopentanoate compared to extracts of wild-type plants” value on DAAO worked out at 15 fold.
